From ChEMBL document CHEMBL2073762, “Carrier-mediated mechanism for the biliary excretion of the quinolone antibiotic grepafloxacin and its glucuronide in rats” (J Pharmacol Exp Ther, 1998)
Values belong to the molecule of their own block, whether it stands above or below them.

Tests used:
[1] = biological target: T1, ATP-binding cassette sub-family C member 2 (Rattus norvegicus, UniProt Q63120); experiment: TP_TRANSPORTER: inhibition of DNP-SG uptake in bile canalicular membrane vesicles from SD rat; assay type: functional, cell membranes, Sprague-Dawley, Bile canalicular membrane vesicle
[2] = biological target: T1, ATP-binding cassette sub-family C member 2; experiment: TP_TRANSPORTER: uptake in bile canalicular membrane vesicles from EHBR rat; assay type: functional, cell membranes, Bile canalicular membrane vesicle
[3] = biological target: T1, ATP-binding cassette sub-family C member 2; experiment: TP_TRANSPORTER: uptake in bile canalicular membrane vesicles from SD rat; assay type: functional, cell membranes, Sprague-Dawley, Bile canalicular membrane vesicle
[4] = biological target: T1, ATP-binding cassette sub-family C member 2; experiment: TP_TRANSPORTER: inhibition of DNP-SG uptake (DNP-SG: 1 uM, LFLX: 10000uM) in bile canalicular membrane vesicles from SD rat; assay type: functional, cell membranes, Sprague-Dawley, Bile canalicular membrane vesicle
[5] = biological target: T1, ATP-binding cassette sub-family C member 2; experiment: TP_TRANSPORTER: inhibition of DNP-SG uptake (DNP-SG: 1 uM, LFLX: 10000uM) in bile canalicular membrane vesicles from EHBR rat; assay type: functional, cell membranes, Bile canalicular membrane vesicle
[6] = biological target: T1, ATP-binding cassette sub-family C member 2; experiment: TP_TRANSPORTER: inhibition of DNP-SG uptakee (DNP-SG: 1 uM, OFLX: 10000 uM) in bile canalicular membrane vesicles from SD rat; assay type: functional, cell membranes, Sprague-Dawley, Bile canalicular membrane vesicle
[7] = biological target: T1, ATP-binding cassette sub-family C member 2; experiment: TP_TRANSPORTER: inhibition of DNP-SG uptakee (DNP-SG: 1 uM, SPFX: 3000 uM) in bile canalicular membrane vesicles from SD rat; assay type: functional, cell membranes, Sprague-Dawley, Bile canalicular membrane vesicle; design: scale not given: the % may be the effect or the level left
[8] = biological target: ATP-binding cassette sub-family C member 2 (ABCC2/Mrp2) (Rattus norvegicus, UniProt Q63120); experiment: TP_TRANSPORTER: inhibition of DNP-SG uptakee (DNP-SG: 1 uM, SPFX: 3000 uM) in bile canalicular membrane vesicles from EHBR rat; assay type: functional, cell membranes, Bile canalicular membrane vesicle; design: scale not given: the % may be the effect or the level left; conditions: probe DNP-SG (1 uM), read-out: Activity
[9] = substrate: Cc1c(F)c(N2CCNC(C)C2)cc2c1c(=O)c(C(=O)O[C@@H]1O[C@H](C(=O)O)[C@@H](O)[C@H](O)[C@H]1O)cn2C1CC1; experiment: TP_TRANSPORTER: uptake, high affinity component in bile canalicular membrane vesicles from SD rat; assay type: functional, cell membranes, Sprague-Dawley, Bile canalicular membrane vesicle

Molecule: CCn1cc(C(=O)O)c(=O)c2cc(F)c(N3CCNC(C)C3)c(F)c21 (stereo not given) [LOMEFLOXACIN]
Activity [4]: inhibitor [(at a rough estimate) 50 % of control] | Activity [5]: inhibitor [(at a rough estimate) 50 % of control]

Molecule: CC1COc2c(N3CCN(C)CC3)c(F)cc3c(=O)c(C(=O)O)cn1c23 (stereo not given) [OFLOXACIN]
Activity [6]: inhibitor [(at a rough estimate) 50 % of control]

B1: ATP-binding cassette sub-family C member 2 (Rattus norvegicus) (protein)
chain: MDKFCNSTFWDLSLLESPEADLPLCFEQTVLVWIPLGFLWLLAPWQLYSVYRSRTKRSSITKFYLAKQVFVVFLLILAAIDLSLALTEDTGQATVPPVRYTNPILYLCTWLLVLAVQHSRQWCVRKNSWFLSLFWILSVLCGVFQFQTLIRALLKDSKSNMAYSYLFFVSYGFQIVLLILTAFSGPSDSTQTPSVTASFLSSITFSWYDRTVLKGYKHPLTLEDVWDIDEGFKTRSVTSKFEAAMTKDLQKARQAFQRRLQKSQRKPEATLHGLNKKQSQSQDVLVLEEAKKKSEKTTKDYPKSWLIKSLFKTFHVVILKSFILKLIHDLLVFLNPQLLKLLIGFVKSSNSYVWFGYICAILMFAVTLIQSFCLQSYFQHCFVLGMCVRTTVMSSIYKKALTLSNLARKQYTIGETVNLMSVDSQKLMDATNYMQLVWSSVIQITLSIFFLWRELGPSILAGVGVMVLLIPVNGVLATKIRNIQVQNMKNKDKRLKIMNEILSGIKILKYFAWEPSFQEQVQGIRKKELKNLLRFGQLQSLLIFILQITPILVSVVTFSVYVLVDSANVLNAEKAFTSITLFNILRFPLSMLPMVTSSILQASVSVDRLERYLGGDDLDTSAIRRVSNFDKAVKFSEASFTWDPDLEATIQDVNLDIKPGQLVAVVGTVGSGKSSLVSAMLGEMENVHGHITIQGSTAYVPQQSWIQNGTIKDNILFGSEYNEKKYQQVLKACALLPDLEILPGGDMAEIGEKGINLSGGQKQRVSLARAAYQDADIYILDDPLSAVDAHVGKHIFNKVVGPNGLLAGKTRIFVTHGIHFLPQVDEIVVLGKGTILEKGSYRDLLDKKGVFARNWKTFMKHSGPEGEATVNNDSEAEDDDDGLIPTMEEIPEDAASLAMRRENSLRRTLSRSSRSSSRRGKSLKNSLKIKNVNVLKEKEKEVEGQKLIKKEFVETGKVKFSIYLKYLQAVGWWSILFIILFYGLNNVAFIGSNLWLSAWTSDSDNLNGTNNSSSHRDMRIGVFGALGLAQGICLLISTLWSIYACRNASKALHGQLLTNILRAPMRFFDTTPTGRIVNRFSGDISTVDDLLPQTLRSWMMCFFGIAGTLVMICMATPVFAIIIIPLSILYISVQVFYVATSRQLRRLDSVTKSPIYSHFSETVTGLPIIRAFEHQQRFLAWNEKQIDINQKCVFSWITSNRWLAIRLELVGNLVVFCSALLLVIYRKTLTGDVVGFVLSNALNITQTLNWLVRMTSEAETNIVAVERISEYINVENEAPWVTDKRPPADWPRHGEIQFNNYQVRYRPELDLVLKGITCNIKSGEKVGVVGRTGAGKSSLTNCLFRILESAGGQIIIDGIDVASIGLHDLRERLTIIPQDPILFSGSLRMNLDPFNKYSDEEVWRALELAHLRSFVSGLQLGLLSEVTEGGDNLSIGQRQLLCLGRAVLRKSKILVLDEATAAVDLETDSLIQTTIRKEFSQCTVITIAHRLHTIMDSDKIMVLDNGKIVEYGSPEELLSNRGSFYLMAKEAGIENVNHTEL
Km [9]: 7.2 µM

Results, then the molecule that gave them:

Ki [1]: 9.2 µM
Molecule: Cc1c(F)c(N2CCNC(C)C2)cc2c1c(=O)c(C(=O)O[C@@H]1O[C@H](C(=O)O)[C@@H](O)[C@H](O)[C@H]1O)cn2C1CC1 (stereo not given in full) [GREPAFLOXACIN GLUCURONIDE]

Ki [1]: 1890 µM | Activity [2]: substrate [+] | Activity [3]: substrate [+]
Molecule: Cc1c(F)c(N2CCNC(C)C2)cc2c1c(=O)c(C(=O)O)cn2C1CC1 (stereo not given) [GREPAFLOXACIN]

Activity [7]: 60% | activity at 3000 µM [8]: 60%
Molecule: C[C@@H]1CN(c2c(F)c(N)c3c(=O)c(C(=O)O)cn(C4CC4)c3c2F)C[C@H](C)N1 [SPARFLOXACIN]
